{
  "source": "patent US9610363B2",
  "about": "“Methods for inhibiting starvation of a cell” (PRESIDENT AND FELLOWS OF HARVARD COLLEGE, priority 2009, dated 2017)",
  "molecules": {"B1": {"name": "proinsulin (protein, UniProt P01326 25-110, looked up)", "pro-form": "FVKQHLCGSHLVEALYLVCGERGFFYTPMSRREVEDPQVAQLELGGGPGAGDLQTLALEVAQQKRGIVDQCCTSICSLYQLENYCN", "modifications": "pro-form"}},
  "key": {"cones [1]": {"tested_on": "cones", "assay": "AAV2/5 gluconeogenesis vector tested in vivo in the rd1 mutant mouse, cone survival and morphology"}, "[2]": {"assay": "Behavioral assays (open field and step tests) in rd1 mutant mice", "format": "in vivo, mouse", "conditions": "infected rd1 animals", "text": "FIG. 23 is a graph depicting the open field and step tests performed on the rd1 mutant mice in which the AAV vector was introduced.\nThis observation also confirms that outer segment shortening was due to insufficient glucose."}, "HEK 293 cells": {"tested_on": "HEK 293 cells", "assay": "Expression of Fbp-1, Pck-1 and Pcx from the AAV vector (PCR, Western blot in HEK 293 cells)", "format": "cell-based", "protocol": "FIGS. 22A and B depict the mRNA expression and protein expression of gluconeogenesis genes. […] Gapdh is used as a loading control and water is used as a negative control.\nTwo ways were used to supply cells with more glucose. One was to increase intracellular glucose levels by providing cones with the means to synthesize their own glucose. Glucose synthesis, called gluconeogenesis, is carried out primarily in the liver, and to a limited extent in kidney and muscle. One might consider that the enzymes required for glucose synthesis could be those that break down glucose, during the process of glycolysis. However, some of the steps in glycolysis are energy producing and thus to reverse them requires a different process. Three enzymes must be supplied to allow the glucose to be synthesized, utilizing pyruvate or lactate as a starting point, and utilizing ATP and GTP to go uphill energetically in the synthesis. The first energy requiring step is catalyzed by Pcx (Pcx: Pyruvate Carboxylase) and utilizes ATP. A subsequent energy requiring step is catalyzed by Pck1: Phosphoenolpyruvate carboxykinase) and requires GTP. […] The endogenous expression of Fbp1, PCk1, and Pcx and the expression Fbp1, PCk1, and Pcx in the AAV vector (“construct”) was analyzed by PCR analysis (FIG. 22A) and Western blot analysis (FIG. 22B)."}, "cones [3]": {"tested_on": "cones", "assay": "Quantification of cone survival in PDE-β−/− mice (cone-lacZ staining of retinal flat mounts)", "format": "in vivo", "conditions": "for cone survival after 4 weeks of treatment: PW7, insulin daily i.p. from P21, streptozotocin single i.p. injection at P21, vs uninjected control; for cone survival after 7 weeks of treatment: PW10, treatment from PW3, vs untreated", "protocol": "(§1) Rapamycin, Streptozotocin and Insulin treatments were performed as follows. Rapamycin was diluted to 10 mg/ml in ethanol. The stock was diluted to 0.015 mg/ml in drinking water over a period of 2 weeks. A single intraperitoneal injection of 150 μl (12 mg/ml in 0.1M citric acid, ph4.5) of Streptozotocin was injected at postnatal day (P) 21. Insulin was injected intraperitoneally daily starting at P21. The concentration was increased weekly such that the first week, 10 U/kg body weight, the second 15 U/kg, the third 20 U/kg and fourth 30 U/kg body weight, were injected. In the treatment that lasted 7 weeks 30 U/kg body weight were injected for the remaining 3 weeks. Blood glucose levels were measured by collecting a drop of blood from the tail directly onto a test strip from TrueTrack smart system (CVS pharmacy). Eye bleeds were avoided due to the fact that cell survival in the retina was being assayed.\nQuantification of cone survival was performed as follows. The colors of the bright light image were inverted and processed with Imaris software (Bitplane Inc) to calculate the percentage of blue surface area versus the total retinal surface area (see also FIG. 17). A minimum of 8 retinae per treatment, and for the control, were analyzed. P-values were calculated by the student's t-test."}, "HIF-1α": {"tested_on": "HIF-1α", "assay": "Immunofluorescent staining for HIF-1α in cones of PDE-β−/− mice", "format": "in vivo", "conditions": "PDE-β−/− mice treated for 4 weeks with insulin", "protocol": "as §1, with “Eye bleeds were avoided due to the fact that cell survival in the retina was being assayed.” left out\n(§2) Whole mount and section antibody staining were performed as previously (Punzo, C. & Cepko, C. L. (2008) Dev Dyn 237, 1034-42) described with the following modifications. […] Time points analyzed for the rod and cone death kinetics (P: postnatal day; PW: postnatal week): PDE-β−/−: P10-P20 daily, PW3-10 weekly, PW 12, PW15, PW18, PW45; PDE-γ-KO: P10-P20 daily, PW3-PW10 weekly, PW15, PW25, PW45; Rho-KO: PW4-PW8 weekly, PW10, PW11, PW17, PW20, PW25, PW27, PW31, PW34, PW37, PW45, PW55, PW80; P23H: PW5, PW10, PW16, PW25, PW30, PW35, PW40, PW65, PW70, PW75, PW80, PW85."}, "p*-mTOR": {"tested_on": "p*-mTOR", "assay": "Retinal explant culture, p*-mTOR staining", "format": "cell-based, mice", "conditions": "wild type retinal explants, 4 hours culture, media with or without glucose", "protocol": "Retinal explant cultures: The retina was dissected free from other ocular tissues in DMEM, and then incubated in conditions according to the chart in FIG. 10a. Regular DMEM was at 4.5 g/L glucose, low glucose was at 1 g/L, leucine was added at 200 μM and FCS at 10%. Incubation was performed for 4 h and the retinae were fixed and processed for antibody staining as described below.\nas §2, with “modifications. Antibody staining for LAMP-2: Triton was replaced with 0.01% Saponin. Antibody staining for p*-mTOR and p*-S6: PBS was replaced by TBS in every step of the procedure.” for “modifications.”"}, "photoreceptor": {"tested_on": "photoreceptor", "conditions": "cited from earlier work"}},
  "note": "“Also recorded” adds a separate entry of the source.",
  "data": [
    {"molecule": "CMV promotor-Pcx-IRES-Fbp1-IRES-Pck1: AAV 2/5 virus carrying Pcx, Fbp1 and Pck1 on one transcript under the CMV promoter with IRES elements", "values": [
      {"measurement": "morphology of the cone outer segments", "setting": "cones [1]", "value": "remarkably similar to that of normal cones"},
      {"measurement": "cone survival", "setting": "cones [1]; relative to controls", "value": "additional cone survival relative to controls"},
      {"measurement": "vision in two behavioral assays", "setting": "[2]", "value": "functional vision"},
      {"measurement": "mRNA expression of Fbp-1, Pck-1 and Pcx", "setting": "HEK 293 cells; PCR analysis, Gapdh loading control", "value": "expresses these genes"},
      {"measurement": "protein expression of Fbp-1, Pck-1 and Pcx", "setting": "HEK 293 cells; Western blot, transfected HEK 293 cells vs retina and HEK 293 control samples", "value": "upregulated"}
    ]},
    {"molecule": "insulin", "values": [
      {"measurement": "cone survival after 4 weeks of treatment", "setting": "cones [3]", "value": "improved cone survival; also recorded: prolonged cone survival"},
      {"measurement": "cone survival after 7 weeks of treatment", "setting": "cones [3]", "value": "did not show any significant improvement of cone survival; also recorded: no significant difference in cone survival"},
      {"measurement": "upregulation of HIF-1α in cones", "setting": "HIF-1α", "value": "did not show the upregulation of HIF-1α; also recorded: prevented the upregulation of HIF-1α"}
    ]},
    {"molecule": "CN(N=O)C(=O)N[C@H]1C(O)O[C@H](CO)[C@@H](O)[C@@H]1O", "note": "(mixture of isomers) [streptozotocin]", "values": [
      {"measurement": "cone survival after 4 weeks of treatment", "setting": "cones [3]", "value": "decrease in cone survival"},
      {"measurement": "cone survival after 7 weeks of treatment", "setting": "cones [3]", "value": "no significant difference in cone survival"}
    ]},
    {"molecule": "O=C[C@H](O)[C@@H](O)[C@H](O)[C@H](O)CO", "note": "[glucose]", "values": [
      {"measurement": "dorsal p*-mTOR in cones", "setting": "p*-mTOR", "value": "abolished in the absence of glucose; also recorded: only detected when glucose was present"}
    ]},
    {"molecule": "B1", "values": [
      {"measurement": "photoreceptor death", "setting": "photoreceptor; constitutive expression, rd10 mouse model of RP", "value": "delays photoreceptor death, both of rods and cones"},
      {"measurement": "hyperglycemia", "setting": "photoreceptor; mice treated with proinsulin", "value": "did not develop hyperglycemia"}
    ]}
  ]
}
